Measurements: publication PMC7415757, “Monocrotaline-induced liver toxicity in rat predicted by a combined in vitro physiologically based kinetic modeling approach” (Archives of Toxicology, 2020)
Read-outs that look alike come from different tables or passages of the source.

How the values were obtained:
[1] = ref Chen et al. [2018], cited from earlier work
[2] = ref Chen et al. [2018], cited from earlier work; remark: listed apart in the source
[3] = tested on: primary rat hepatocytes; assay: WST-1 cytotoxicity assay with primary rat hepatocytes; format: cell-based, rat (Sprague–Dawley); conditions: primary rat hepatocytes
Method: The monocrotaline-induced liver toxicity was tested in vitro using the WST-1 assay which measures the formazan formation by the metabolically active cells from WST-1. Pooled cryopreserved plateable male rat (Sprague–Dawley) hepatocytes (RTCP10™) were thawed and seeded in accordance with the manufacturer’s protocol. Briefly, cells were seeded in 96-well plates (Greiner bio-one, Alphen aan den Rijn, The Netherlands) at a concentration of 5 × 10^5 cells/ml to give 1.25 × 10^4 cells/well and incubated at 37 °C, 5% CO2 in a humidified atmosphere for 6 h to allow cell adherence. […] The solvent DMSO (0.5% (v/v) final concentration in exposure medium) was used as a negative control and triton X (final concentration 1% (v/v) in exposure medium) served as a positive control in all cytotoxicity assays. After exposure for 24 h, 5 μl (1:20 dilution) WST-1 reagent was added to each well and plates were incubated for an additional 1 h. Then, the plate was shaken at 1000 rpm for 1 min, and absorbance was measured at 440 nm (background absorbance at 620 nm was subtracted) using a SpectraMax M2 (Molecular Devices, Sunnyvale, USA).
Data are presented as mean values ± SE from three independent experiments with three different batches of rat hepatocytes. The cell viability was expressed as percentage of the solvent control, with the solvent control set at 100%. The obtained concentration–response curves for hepatotoxicity were fitted with a symmetrical sigmoidal model (Hill slope) which was further used to derive IC50 values using log [inhibitor] vs. normalized response using GraphPad Prism software (version 5.00 for Windows, GraphPad software, San Diego, USA).

[4] = tested on: primary rat hepatocytes; conditions: same model system; ref Chen et al. [2018]; read-out: EC50 cell viability; cited from earlier work
[5] = tested on: human liver cell line HepaRG; conditions: in vitro γH2AX induction potency, ref Louisse et al. ([2019]); cited from earlier work
[6] = ref Chen et al. [2018]; cited from earlier work
[7] = ref Chen et al. [2018]; cited from earlier work; remark: listed apart in the source
[8] = Substrate depletion in incubations with pooled rat liver microsomes; format: in vitro ADME, rat (Sprague–Dawley); conditions: liver microsomes versus intestinal microsomes
Method: After 5 min of pre-incubation in a shaking water bath at 37 °C, the reactions were started by the addition of 1 mM NADPH. The reactions were carried out for 1 h and 2 h for liver and intestinal microsomes, respectively. For each incubation, a corresponding control incubated in the absence of NADPH was included by adding buffer instead of NADPH. To stop the metabolic conversion, 100 µl of ice-cold methanol was added and the sample was put on ice, then centrifuged at 5000 × g for 20 min at 4 °C using a microcentrifuge (CT15RE, VWR, Leuven, Belgium). Supernatants were diluted 200 times in 90% (v/v) acetonitrile and transferred to LC–MS vials. LC–MS analysis was performed using a Shimadzu Nexera XR LC-20AD SR UPLC system in tandem with a Shimadzu LCMS-8040 mass spectrometer (Shimadzu, Kyoto, Japan). From each incubation, 1 µl of supernatant was loaded onto a Luna Omega polar C18 100A LC column (1.6 µm 100 × 2.1 mm, Phenomenex) fitted with a FP polar precolumn (Phenomenex), using a flow rate of 0.3 ml/min. The temperature was set at 40 °C and 5 °C for column and sample, respectively. The mobile phase consisted of ultrapure water (solvent A) and acetonitrile (solvent B) both containing 0.1% (v/v) formic acid. The gradient began with 100% solvent A (0% B) for 1 min to wash away unwanted salts, followed by a linear gradient from 0 to 5% B till 8 min and a further increase to 100% B in 2 min, keeping the elution at 100% B for 0.5 min, then the column was set back to the starting conditions and equlibrated for 3.4 min before the next injection. […] For all incubations, three independent replicates were performed.
The ratio of Vmax and Km was calculated as the in vitro catalytic efficiency (kcat) expressed in […]. […] The rat liver weight of 8.5 g and small intestine weight of 3.5 g (see Table 1) (Brown et al. [1997]) were used to scaled the in vivo kcat values to values expressed in ml/min/tissue.

[9] = ref Merz and Schrenk ([2016]); cited from earlier work

Row | Compound | Km ([1]; intestine) | Km ([2]; liver) | times more toxic than monocrotaline in vitro [3] | EC50 [4] | potency group [5] | Tissue/blood partition coefficient, fat (PF) [6] | Tissue/blood partition coefficient, liver (PL) [6] | Tissue/blood partition coefficient, richly perfused tissue (PR) [6] | Tissue/blood partition coefficient, slowly perfused tissue (PS) [6] | Tissue/blood partition coefficient, small intestine (PI) [6] | other results
1 | C/C=C(/C)C(=O)O[C@H]1CCN2CC=C(COC(=O)[C@@](O)([C@H](C)OC)C(C)(C)O)[C@H]12 [Lasiocarpine] | 23.4 µM | 19.5 µM | 35.7 | 10.9 µM | group 1 | 2.44 | 0.88 | 0.88 | 0.48 | 0.88 | –
2 | C=C1C/C(=C/C)C(=O)O[C@@H]2CCN3CC=C(COC(=O)[C@@]1(O)CO)[C@H]23 [Riddelliine] | 221 µM | 75.7 µM | 20.7 | 6.3 µM | group 1 | 0.44 | 0.77 | 0.77 | 0.43 | 0.77 | Scaled Vmax ([1]; intestine): 2.06 nmol/min/g tissue; Scaled kcat ([1]; intestine): 0.009 ml/min/g tissue; Vmax ([1]; intestine): 0.1 nmol/min/mg microsomal protein; Scaled kcat ([1]; small intestine weight 3.5 g): 0.03 ml/min/ tissue; Scaled kcat ([2]; liver weight 8.5 g): 8.2 ml/min/ tissue; Scaled Vmax ([2]; liver): 73.5 nmol/min/g tissue; Scaled kcat ([2]; liver): 0.97 ml/min/g tissue; Vmax ([2]; liver): 2.1 nmol/min/mg microsomal protein; pRPF (provisional relative potency factor) [5]: 1; Ka derived from Eq. 5 [7]: 1.17 h⁻¹; in vivo scaled kcat (ml/min tissue) liver relative to intestine [8]: 253 times; pRPF (provisional relative potency factor) [9]: ~1.0
